Laboratory results taken from ChEMBL document CHEMBL1833909, “Synthesis and structure-activity relationships of 4,5-fused pyridazinones as histamine H₃ receptor antagonists” (Bioorg Med Chem Lett, 2011).

Assays:
[1] = target: Cytochrome P450 2C9 (Homo sapiens, UniProt P11712); test: Inhibition of CYP2C9; type: ADME
[2] = target: T1, Cytochrome P450 1A2 (Homo sapiens, UniProt P05177); test: Inhibition of CYP1A2; type: ADME
T1 sequence (P05177 whole entry): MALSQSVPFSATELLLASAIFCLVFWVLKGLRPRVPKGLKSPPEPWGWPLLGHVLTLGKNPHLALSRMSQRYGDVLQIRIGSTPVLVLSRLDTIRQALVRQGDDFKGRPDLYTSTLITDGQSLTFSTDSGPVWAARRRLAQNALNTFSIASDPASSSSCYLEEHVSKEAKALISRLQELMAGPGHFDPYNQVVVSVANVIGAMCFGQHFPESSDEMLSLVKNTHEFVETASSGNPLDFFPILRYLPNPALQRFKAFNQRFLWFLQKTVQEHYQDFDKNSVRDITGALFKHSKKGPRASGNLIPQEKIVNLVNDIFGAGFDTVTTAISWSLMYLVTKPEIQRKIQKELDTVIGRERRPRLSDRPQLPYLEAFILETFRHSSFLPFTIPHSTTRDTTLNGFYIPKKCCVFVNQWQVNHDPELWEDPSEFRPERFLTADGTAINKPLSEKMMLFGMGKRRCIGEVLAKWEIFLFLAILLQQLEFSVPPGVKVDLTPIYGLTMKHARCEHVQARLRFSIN

[3] = target: Histamine H3 receptor (Rattus norvegicus, UniProt Q9QYN8); test: Displacement of [3H]-NAMH from rat histamine H3 receptor expressed in CHO cells; type: cell-based
[4] = target: Cytochrome P450 2C19 (Homo sapiens, UniProt P33261); test: Inhibition of CYP2C19; type: ADME
[5] = target: Cytochrome P450 2D6 (Homo sapiens, UniProt P10635); test: Inhibition of CYP2D6; type: ADME
[6] = target: Cytochrome P450 3A4 (Homo sapiens, UniProt P08684); test: Inhibition of CYP3A4; type: ADME
[7] = target: T2, Histamine H3 receptor (Homo sapiens, UniProt Q9Y5N1); test: biochemical
[8] = target: T2, Histamine H3 receptor; test: Antagonist activity at recombinant human histamine H3 receptor assessed as inhibition of RAMH-induced [35S]GTPgammaS binding; type: functional
[9] = target: T2, Histamine H3 receptor; test: Inverse agonist activity at human histamine H3 receptor assessed as decrease of basal activity of [35S]GTPgammaS binding; type: functional
[10] = Half life in rat at 1 mg/kg, iv; type: ADME, organism-based; set-up: dose 1 mg/kg, route intravenous; conditions: in vivo
[11] = AUC in rat at 1 mg/kg, iv; type: ADME, organism-based; set-up: dose 1 mg/kg, route intravenous; conditions: plasma
[12] = Volume of distribution in rat at 1 mg/kg, iv; type: ADME, organism-based; set-up: dose 1 mg/kg, route intravenous; conditions: in vivo
[13] = Clearance in rat at 1 mg/kg, iv; type: ADME, organism-based; set-up: dose 1 mg/kg, route intravenous; conditions: in vivo
[14] = Cmax in rat at 5 mg/kg, po; type: ADME, organism-based; set-up: dose 5 mg/kg, route oral; conditions: in vivo
[15] = Oral bioavailability in rat at 5 mg/kg; type: ADME, organism-based; conditions: in vivo
[16] = Ratio of drug level in brain to plasma in ip dosed rat after 1 hr; type: ADME, organism-based; conditions: read-out: BPR
[17] = Half life in dog liver microsomes; type: ADME, Canis lupus familiaris, Microsome
[18] = Half life in rat liver microsomes; type: ADME, Microsome
[19] = Half life in human liver microsomes; type: ADME, Microsome
[20] = AUC in rat at 5 mg/kg, po; type: ADME, organism-based; set-up: dose 5 mg/kg, route oral; conditions: plasma
[21] = target: Histamine H1 receptor (Homo sapiens) (UniProt P35367); test: Inhibition of human histamine H1 receptor at 10 uM
[22] = target: Histamine H2 receptor (Homo sapiens) (UniProt P25021); test: Inhibition of human histamine H2 receptor at 10 uM
[23] = target: Histamine H4 receptor (Homo sapiens) (UniProt Q9H3N8); test: Inhibition of human histamine H4 receptor at 10 uM
[24] = target: Sodium-dependent noradrenaline transporter (Homo sapiens) (UniProt P23975); test: Inhibition of norepinephrine transporter at 10 uM
[25] = Inhibition of dihydropyridine site of calcium channel at 10 uM
[26] = target: hERG (KCNH2) (Homo sapiens, UniProt Q12809); test: Inhibition of human ERG at 10 uM by patch clamp assay

Chain of Cytochrome P450 2C9 (P11712 whole entry): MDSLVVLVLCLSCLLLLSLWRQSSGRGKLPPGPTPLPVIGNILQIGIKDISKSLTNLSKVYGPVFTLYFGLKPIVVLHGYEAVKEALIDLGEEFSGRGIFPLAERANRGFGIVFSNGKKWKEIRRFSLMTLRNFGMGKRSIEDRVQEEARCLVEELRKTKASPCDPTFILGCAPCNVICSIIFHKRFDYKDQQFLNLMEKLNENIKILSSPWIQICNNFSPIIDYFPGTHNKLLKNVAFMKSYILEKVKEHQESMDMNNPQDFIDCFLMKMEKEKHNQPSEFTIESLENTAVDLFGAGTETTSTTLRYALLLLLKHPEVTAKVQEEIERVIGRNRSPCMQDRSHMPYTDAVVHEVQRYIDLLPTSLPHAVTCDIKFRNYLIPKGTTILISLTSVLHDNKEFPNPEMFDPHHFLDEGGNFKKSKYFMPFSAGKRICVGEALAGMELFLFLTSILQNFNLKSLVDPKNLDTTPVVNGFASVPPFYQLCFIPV
Chain of Histamine H3 receptor (Rattus norvegicus, UniProt Q9QYN8) (Q9QYN8 whole entry): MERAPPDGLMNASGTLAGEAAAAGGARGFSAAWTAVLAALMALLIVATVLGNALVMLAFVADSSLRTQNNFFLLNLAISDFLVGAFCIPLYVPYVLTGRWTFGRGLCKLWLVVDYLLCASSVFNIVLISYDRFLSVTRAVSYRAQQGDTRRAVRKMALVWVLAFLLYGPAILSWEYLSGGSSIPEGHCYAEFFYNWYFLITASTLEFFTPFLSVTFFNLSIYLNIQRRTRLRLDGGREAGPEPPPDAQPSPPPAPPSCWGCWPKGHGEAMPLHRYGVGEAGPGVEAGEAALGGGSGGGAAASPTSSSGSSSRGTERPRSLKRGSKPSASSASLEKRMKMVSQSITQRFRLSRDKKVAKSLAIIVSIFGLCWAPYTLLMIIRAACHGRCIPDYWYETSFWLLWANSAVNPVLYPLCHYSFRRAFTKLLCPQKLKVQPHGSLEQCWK
T2 sequence (Q9Y5N1 whole entry): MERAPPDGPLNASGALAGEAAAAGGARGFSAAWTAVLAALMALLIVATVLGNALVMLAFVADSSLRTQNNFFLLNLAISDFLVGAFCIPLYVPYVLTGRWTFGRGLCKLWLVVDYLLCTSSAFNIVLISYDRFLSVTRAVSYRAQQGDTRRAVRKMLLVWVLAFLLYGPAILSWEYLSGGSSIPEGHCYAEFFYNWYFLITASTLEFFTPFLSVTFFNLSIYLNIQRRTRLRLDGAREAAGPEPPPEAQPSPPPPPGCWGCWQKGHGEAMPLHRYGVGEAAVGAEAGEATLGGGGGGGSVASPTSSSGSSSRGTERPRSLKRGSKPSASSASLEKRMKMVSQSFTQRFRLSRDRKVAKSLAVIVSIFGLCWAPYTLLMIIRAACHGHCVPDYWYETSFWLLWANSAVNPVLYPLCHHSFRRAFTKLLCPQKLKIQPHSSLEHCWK
Chain of Cytochrome P450 2D6 (P10635 whole entry): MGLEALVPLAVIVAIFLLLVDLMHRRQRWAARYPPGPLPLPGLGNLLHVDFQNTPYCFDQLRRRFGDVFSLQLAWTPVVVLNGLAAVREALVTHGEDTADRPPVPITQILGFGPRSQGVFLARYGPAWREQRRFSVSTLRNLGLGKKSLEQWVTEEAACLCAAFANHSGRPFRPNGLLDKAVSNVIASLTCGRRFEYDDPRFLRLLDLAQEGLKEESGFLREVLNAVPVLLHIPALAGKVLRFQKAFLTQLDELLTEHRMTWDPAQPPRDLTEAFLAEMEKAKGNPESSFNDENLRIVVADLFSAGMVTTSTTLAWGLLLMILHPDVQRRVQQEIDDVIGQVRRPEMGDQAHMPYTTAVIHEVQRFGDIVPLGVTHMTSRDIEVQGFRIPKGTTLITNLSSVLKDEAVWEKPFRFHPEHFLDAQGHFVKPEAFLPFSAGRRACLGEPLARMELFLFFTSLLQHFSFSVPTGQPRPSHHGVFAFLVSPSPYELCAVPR
Chain of Cytochrome P450 3A4 (P08684 whole entry): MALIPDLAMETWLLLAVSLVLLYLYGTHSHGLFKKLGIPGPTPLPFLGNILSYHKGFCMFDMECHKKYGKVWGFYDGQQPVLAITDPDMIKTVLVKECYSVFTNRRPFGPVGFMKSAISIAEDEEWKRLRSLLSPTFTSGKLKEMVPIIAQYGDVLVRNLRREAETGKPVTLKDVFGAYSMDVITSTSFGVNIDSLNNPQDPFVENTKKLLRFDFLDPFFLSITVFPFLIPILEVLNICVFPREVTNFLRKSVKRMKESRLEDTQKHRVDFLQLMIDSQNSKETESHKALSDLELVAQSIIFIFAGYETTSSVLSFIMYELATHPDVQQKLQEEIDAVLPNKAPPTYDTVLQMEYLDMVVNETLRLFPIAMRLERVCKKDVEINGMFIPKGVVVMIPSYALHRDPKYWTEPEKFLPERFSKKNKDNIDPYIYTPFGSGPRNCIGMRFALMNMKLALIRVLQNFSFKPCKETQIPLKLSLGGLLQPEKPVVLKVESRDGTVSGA
Chain of Cytochrome P450 2C19 (P33261 whole entry): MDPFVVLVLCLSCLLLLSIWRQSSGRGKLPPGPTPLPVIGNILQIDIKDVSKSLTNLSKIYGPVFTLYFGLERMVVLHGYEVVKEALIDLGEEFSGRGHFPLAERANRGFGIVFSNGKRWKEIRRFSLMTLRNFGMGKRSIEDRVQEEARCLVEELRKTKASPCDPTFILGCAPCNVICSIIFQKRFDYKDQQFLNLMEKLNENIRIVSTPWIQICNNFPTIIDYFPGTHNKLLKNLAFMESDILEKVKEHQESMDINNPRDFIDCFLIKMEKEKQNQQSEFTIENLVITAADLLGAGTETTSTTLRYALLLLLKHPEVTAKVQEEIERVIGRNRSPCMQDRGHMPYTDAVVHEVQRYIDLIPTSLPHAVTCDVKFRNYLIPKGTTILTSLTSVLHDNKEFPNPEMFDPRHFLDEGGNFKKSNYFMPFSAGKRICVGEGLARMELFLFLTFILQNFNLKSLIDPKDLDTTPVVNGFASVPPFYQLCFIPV
Chain of Histamine H1 receptor (Homo sapiens) (P35367 whole entry): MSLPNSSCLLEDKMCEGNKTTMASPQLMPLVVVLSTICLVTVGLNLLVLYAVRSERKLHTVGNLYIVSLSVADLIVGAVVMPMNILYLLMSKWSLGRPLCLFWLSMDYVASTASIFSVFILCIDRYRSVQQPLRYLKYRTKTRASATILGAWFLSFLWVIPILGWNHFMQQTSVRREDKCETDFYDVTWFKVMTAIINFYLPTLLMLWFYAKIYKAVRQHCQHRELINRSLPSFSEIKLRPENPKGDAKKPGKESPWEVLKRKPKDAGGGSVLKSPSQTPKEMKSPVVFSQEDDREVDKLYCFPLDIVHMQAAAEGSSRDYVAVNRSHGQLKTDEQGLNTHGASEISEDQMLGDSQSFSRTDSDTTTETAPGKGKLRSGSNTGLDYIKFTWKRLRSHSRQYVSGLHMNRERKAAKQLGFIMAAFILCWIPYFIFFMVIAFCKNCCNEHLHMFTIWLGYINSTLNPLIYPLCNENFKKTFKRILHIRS
Chain of Sodium-dependent noradrenaline transporter (Homo sapiens) (P23975 whole entry): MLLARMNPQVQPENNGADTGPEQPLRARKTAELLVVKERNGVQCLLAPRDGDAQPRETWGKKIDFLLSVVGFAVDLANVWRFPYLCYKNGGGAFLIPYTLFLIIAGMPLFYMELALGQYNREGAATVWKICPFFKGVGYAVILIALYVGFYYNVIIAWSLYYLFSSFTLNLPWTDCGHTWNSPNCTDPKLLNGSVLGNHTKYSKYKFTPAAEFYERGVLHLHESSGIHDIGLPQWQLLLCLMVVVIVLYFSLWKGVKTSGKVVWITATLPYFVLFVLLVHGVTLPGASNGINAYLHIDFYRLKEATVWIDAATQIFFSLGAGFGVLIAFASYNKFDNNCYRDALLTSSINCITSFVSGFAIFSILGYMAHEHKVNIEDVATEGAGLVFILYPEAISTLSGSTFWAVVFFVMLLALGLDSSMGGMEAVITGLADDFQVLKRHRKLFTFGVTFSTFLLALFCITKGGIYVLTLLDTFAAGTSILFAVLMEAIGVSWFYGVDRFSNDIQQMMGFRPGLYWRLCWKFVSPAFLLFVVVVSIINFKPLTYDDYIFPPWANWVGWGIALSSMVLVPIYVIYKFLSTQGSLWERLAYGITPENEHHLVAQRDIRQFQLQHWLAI
Chain of Histamine H2 receptor (Homo sapiens) (P25021 whole entry): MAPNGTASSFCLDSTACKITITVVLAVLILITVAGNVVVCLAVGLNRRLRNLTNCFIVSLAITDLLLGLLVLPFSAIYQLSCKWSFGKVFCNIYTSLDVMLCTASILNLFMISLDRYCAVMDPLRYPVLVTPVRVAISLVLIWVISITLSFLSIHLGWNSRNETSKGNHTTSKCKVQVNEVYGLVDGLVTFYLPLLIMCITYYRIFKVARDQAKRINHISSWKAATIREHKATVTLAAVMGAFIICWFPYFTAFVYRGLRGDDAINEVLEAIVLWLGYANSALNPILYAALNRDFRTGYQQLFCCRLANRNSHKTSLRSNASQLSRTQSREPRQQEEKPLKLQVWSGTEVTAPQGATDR

| IC50 [1] | IC50 [2] | Ki [3] | IC50 [4] | IC50 [5] | IC50 [6] | Ki [7] | SMILES | also measured |
| --- | --- | --- | --- | --- | --- | --- | --- | --- |
| – | – | 12 nM | – | – | – | 2.4 nM | C[C@@H]1CCCN1CCCOc1ccc(-c2nn(Cc3ccc(Cl)cc3)c(=O)c3ccsc23)cc1 | – |
| – | – | 58 nM | – | – | – | 23 nM | CCCn1nc(-c2ccc(OCCCN3CCC(C)CC3)cc2)c2sccc2c1=O | – |
| – | – | > 3000 nM | – | – | – | 1120 nM | COC[C@H]1CCCN1CCCOc1ccc(-c2nn(C(C)C)c(=O)c3ccsc23)cc1 | – |
| > 30000 nM | > 30000 nM | 4.7 nM | > 30000 nM | > 30000 nM | > 30000 nM | 1.6 nM | C[C@@H]1CCCN1CCCOc1ccc(C2=NN(C)C(=O)C3CCCC23)cc1 (some centres not stated) | – |
| > 30000 nM | > 30000 nM | 1.2 nM | > 30000 nM | > 30000 nM | > 30000 nM | 0.8 nM | C[C@@H]1CCCN1CCCOc1ccc(-c2nn(C)c(=O)c3c2CCCC3)cc1 | – |
| – | – | 167 nM | – | – | – | 23 nM | CCN(CC)CCCOc1ccc(-c2nn(C(C)C)c(=O)c3ccsc23)cc1 | – |
| – | – | 12 nM | – | – | – | 4.6 nM | C[C@@H]1CCCN1CCCOc1ccc(-c2nn(Cc3ccc(Cl)cc3)c(=O)c3ccccc23)cc1 | – |
| > 30000 nM | > 30000 nM | 8.3 nM | > 30000 nM | > 30000 nM | > 30000 nM | 2.6 nM | CC(C)n1nc(-c2ccc(OCCCN3CCC[C@H]3C)cc2)c2sccc2c1=O | half-life [10]: 18 min; AUC [11]: 160 ng·h/mL; Vd [12]: 2.98 L/kg; clearance [13]: 117 mL/min/kg; Cmax [14]: < 5 ng/mL; bioavailability [15]: < 1%; Kp at 1 h [16]: 4.07 |
| – | – | 7 nM | – | – | – | 4 nM | CC(C)n1nc(-c2ccc(OCCCN3CCCC3)cc2)c2sccc2c1=O | – |
| – | – | 19 nM | – | – | – | 1.9 nM | CC(C)n1nc(-c2ccc(OCCCN3CCCCC3)cc2)c2sccc2c1=O | – |
| – | – | 1170 nM | – | – | – | 50 nM | COC[C@@H]1CCCN1CCCOc1ccc(-c2nn(C(C)C)c(=O)c3ccsc23)cc1 | – |
| – | – | 3.8 nM | – | – | – | 0.8 nM | C[C@@H]1CCCN1CCCOc1ccc(-c2nn(C)c(=O)c3ccccc23)cc1 | – |
| – | – | 12 nM | – | – | – | 1.5 nM | CCCn1nc(-c2ccc(OCCCN3CCC[C@H]3C)cc2)c2sccc2c1=O | – |
| > 30000 nM | > 30000 nM | 2 nM | > 30000 nM | > 30000 nM | > 30000 nM | 0.4 nM | C[C@@H]1CCCN1CCCOc1ccc(-c2nn(C)c(=O)c3c2CCC3)cc1 | inhibition [21]: < 30%; inhibition [22]: < 30%; inhibition [23]: < 30%; inhibition [24]: 60%; inhibition [25]: 68%; inhibition at 10 µM [26]: 23%; Kb [8]: 0.2 nM; EC50 [9]: 0.8 nM; half-life [10]: 15.6 min; AUC [11]: 182 ng·h/mL; Vd [12]: 3.35 L/kg; clearance [13]: 163 mL/min/kg; AUC [20]: 5.82 ng·h/mL; Cmax [14]: 7 ng/mL; bioavailability [15]: < 1%; Kp at 1 h [16]: 1.2 |

The remaining lines, values behind:

| SMILES | IC50 [1] | IC50 [2] | Ki [3] | IC50 [4] | IC50 [5] | IC50 [6] | Ki [7] | also measured |
| --- | --- | --- | --- | --- | --- | --- | --- | --- |
| Cn1nc(-c2ccc(OCCCN3CCCCC3)cc2)c2c(c1=O)CCCC2 | > 30000 nM | > 30000 nM | 4.5 nM | > 30000 nM | > 30000 nM | > 30000 nM | 1.5 nM | – |
| Cn1nc(-c2ccc(OCCCN3CCCCC3)cc2)c2c(c1=O)CCC2 | > 30000 nM | > 30000 nM | 4.3 nM | > 30000 nM | > 30000 nM | > 30000 nM | 0.5 nM | Kb [8]: 0.2 nM; EC50 [9]: 0.8 nM |
| CN1N=C(c2ccc(OCCCN3CCCCC3)cc2)C2CCCC2C1=O (configuration not stated) | > 30000 nM | > 30000 nM | 9.4 nM | > 30000 nM | > 30000 nM | > 30000 nM | 2.3 nM | – |
| O=c1c2ccsc2c(-c2ccc(OCCCN3CCCCC3)cc2)nn1Cc1ccc(Cl)cc1 | – | – | 143 nM | – | – | – | 48 nM | – |
| Cn1nc(-c2ccc(OCCN3CCCCC3)cc2)c2ccccc2c1=O | – | – | > 1000 nM | – | – | – | 84 nM | – |
| Cn1nc(-c2ccc(OCCCN3CCCC3)cc2)c2ccccc2c1=O | – | – | 3.6 nM | – | – | – | 1.7 nM | – |
| Cn1nc(-c2ccc(OCCCN3CCCCC3)cc2)c2ccccc2c1=O | > 30000 nM | > 30000 nM | 9 nM | > 30000 nM | > 30000 nM | > 30000 nM | 0.8 nM | half-life [17]: > 40 min; half-life [18]: > 40 min; half-life [19]: > 40 min; half-life [10]: 18 min; AUC [11]: 402 ng·h/mL; Vd [12]: 1.36 L/kg; clearance [13]: 52 mL/min/kg; AUC [20]: 14 ng·h/mL; Cmax [14]: 20 ng/mL; bioavailability [15]: < 1%; Kp at 1 h [16]: 2.98 |
| Cn1nc(-c2ccc(OCCCN3CCCCCC3)cc2)c2ccccc2c1=O | – | – | 1.8 nM | – | – | – | 1.4 nM | – |
| O=c1c2ccccc2c(-c2ccc(OCCCN3CCCCC3)cc2)nn1Cc1ccc(Cl)cc1 | – | – | 23 nM | – | – | – | 11 nM | – |
